# Measured values: patent US20120115724A1, “METHOD OF CONTROLLING UNDESIRED VEGETATION” (SYNGENTA CROP PROTECTION LLC, priority 2009, published 2012)
# Tests used:
# Type in all cases: in vivo
# [1] = system: Alopecurus myosuroides (ALOMY); assay: Pre-emergence biological efficacy (Example 13); conditions: Alopecurus myosuroides, 312 h; pre-emergence, 1,000 g/ha, after 13 days; read-out: Percentage damage ALOMY
# In short: (§1)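 Pre-emergence spray, 250 or 1000 g/ha, applied one day post-sowing; formulation acetone/water 50:50 + 0.5% Tween 20, diluted aqueous. Glasshouse 24/16 °C, 14 h light, 65% RH, watered twice daily. Scored day 13, 0–100% damage.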
# [2] = system: Amaranthus retroflexus (AMARE); assay: Pre-emergence biological efficacy (Example 13); conditions: Amaranthus retroflexus, 312 h; pre-emergence, 1,000 g/ha, after 13 days; read-out: Percentage damage AMARE
# In short: as §1
# [3] = system: Echinochloa crus-galli (ECHCG); assay: Pre-emergence biological efficacy (Example 13); conditions: Echinochloa crus-galli, 312 h; pre-emergence, 1,000 g/ha, after 13 days; read-out: Percentage damage ECHCG
# In short: as §1
# [4] = system: Ipomea hederaceae (IPOHE); assay: Pre-emergence biological efficacy (Example 13); conditions: Ipomoea hederacea, 312 h; pre-emergence, 1,000 g/ha, after 13 days; read-out: Percentage damage IPOHE
# In short: as §1
# [5] = system: Setaria faberi (SETFA); assay: Pre-emergence biological efficacy (Example 13); conditions: Setaria faberi, 312 h; pre-emergence, 1,000 g/ha, after 13 days; read-out: Percentage damage SETFA
# In short: as §1
# [6] = system: Solanum nigrum (SOLNI); assay: Pre-emergence biological efficacy (Example 13); conditions: Solanum nigrum, 312 h; pre-emergence, 1,000 g/ha, after 13 days; read-out: Percentage damage SOLNI
# In short: as §1
# [7] = system: Alopecurus myosuroides (ALOMY); assay: Post-emergence biological efficacy (Example 14); conditions: Alopecurus myosuroides, 312 h; post-emergence, 1,000 g/ha, after 13 days; read-out: Percentage damage ALOMY
# In short: (§2)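 Visual damage rating, 0 (none) to 100 (total), taken 13 days after spraying. Plants sown in standard soil, grown 8 days at 24/16 °C, 14 h light, 65% RH, then treated at 250 or 1000 g/ha from acetone/water 50:50 with 0.5% Tween 20; watered twice daily.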
# [8] = system: Amaranthus retroflexus (AMARE); assay: Post-emergence biological efficacy (Example 14); conditions: Amaranthus retroflexus, 312 h; post-emergence, 1,000 g/ha, after 13 days; read-out: Percentage damage AMARE
# In short: as §2
# [9] = system: Echinochloa crus-galli (ECHCG); assay: Post-emergence biological efficacy (Example 14); conditions: Echinochloa crus-galli, 312 h; post-emergence, 1,000 g/ha, after 13 days; read-out: Percentage damage ECHCG
# In short: as §2
# [10] = system: Ipomea hederaceae (IPOHE); assay: Post-emergence biological efficacy (Example 14); conditions: Ipomoea hederacea, 312 h; post-emergence, 1,000 g/ha, after 13 days; read-out: Percentage damage IPOHE
# In short: as §2
# [11] = system: Setaria faberi (SETFA); assay: Post-emergence biological efficacy (Example 14); conditions: Setaria faberi, 312 h; post-emergence, 1,000 g/ha, after 13 days; read-out: Percentage damage SETFA
# In short: as §2
# [12] = system: Solanum nigrum (SOLNI); assay: Post-emergence biological efficacy (Example 14); conditions: Solanum nigrum, 312 h; post-emergence, 1,000 g/ha, after 13 days; read-out: Percentage damage SOLNI
# In short: as §2
# [13] = system: ABUTH Abutilon theophrasti; assay: Post-emergence crop and weed test (Example 15); conditions: 360 h, after 15 days, read-out: Percentage damage ABUTH
# Protocol: (§3) Seeds of crop and representative weed species were sown in standard soil in pots. After cultivation for 14 days under controlled conditions in a glasshouse (at 22/16° C., day/night; 16 hours light; 65% humidity), the plants were sprayed. The spray solution was prepared by dissolving the technical active ingredient in acetone containing 10.56 wt % Emulsogen EL, 42.22 wt % N-methylpyrrolidone and 2.22 wt % DPG-monoethyl ether to give a 5% stock solution. This was then diluted with water containing 0.2% (v/v) of the adjuvant X-77 to give the desired treatment concentration.
# (§4) The test plants were then grown on under controlled conditions in a glasshouse (at 22/16° C., day/night; 16 hours light; 65% humidity) and watered twice daily. After 15 days the test was evaluated (100 =total damage to plant; 0 =no damage to plant).
# [14] = system: AMARE Amaranthus retroflexus; assay: Post-emergence crop and weed test (Example 15); conditions: 360 h, after 15 days, read-out: Percentage damage AMARE
# Protocol: as §3, §4
# [15] = system: CHEAL Chenopodium album; assay: Post-emergence crop and weed test (Example 15); conditions: 360 h, after 15 days, read-out: Percentage damage CHEAL
# Protocol: as §3, §4
# [16] = system: EPHHL Euphorbia heterophylla; assay: Post-emergence crop and weed test (Example 15); conditions: 360 h, after 15 days, read-out: Percentage damage EPHHL
# Protocol: as §3, §4
# [17] = system: GALAP Galium aparine; assay: Post-emergence crop and weed test (Example 15); conditions: 360 h, 30 g/ha, after 15 days, read-out: Percentage damage GALAP
# Protocol: as §3, §4
# [18] = system: GLXMA Soybean; assay: Post-emergence crop and weed test (Example 15); conditions: Glycine max, 360 h, after 15 days, read-out: Percentage damage GLXMA
# Protocol: as §3, §4
# [19] = system: IPOHE Ipomoea hederacea; assay: Post-emergence crop and weed test (Example 15); conditions: 360 h, after 15 days, read-out: Percentage damage IPOHE
# Protocol: as §3, §4
# [20] = system: KCHSC Kochia scoparia; assay: Post-emergence crop and weed test (Example 15); conditions: Bassia scoparia, 360 h, after 15 days, read-out: Percentage damage KCHSC
# Protocol: as §3, §4
# [21] = system: POLCO Polygonum convolvulus; assay: Post-emergence crop and weed test (Example 15); conditions: Fallopia convolvulus, 360 h, after 15 days, read-out: Percentage damage POLCO
# Protocol: as §3, §4
# [22] = system: SIDSP Sida spinosa; assay: Post-emergence crop and weed test (Example 15); conditions: 360 h, after 15 days, read-out: Percentage damage SIDSP
# Protocol: as §3, §4
# [23] = system: SINAR Sinapis arvensis; assay: Post-emergence crop and weed test (Example 15); conditions: Mutarda arvensis, 360 h, after 15 days, read-out: Percentage damage SINAR
# Protocol: as §3, §4
# [24] = system: VERPE Veronica persica; assay: Post-emergence crop and weed test (Example 15); conditions: 360 h, after 15 days, read-out: Percentage damage VERPE
# Protocol: as §3, §4
# [25] = system: XANST Xanthium strumarium; assay: Post-emergence crop and weed test (Example 15); conditions: 360 h, after 15 days, read-out: Percentage damage XANST
# Protocol: as §3, §4
# [26] = system: ABUTH Abutilon theophrasti; assay: Pre-emergence crop and weed test (Example 16); conditions: after 20 days
# Protocol: as §3, with “1 day” for “14 days”
# (§5) The test plants were then grown on under controlled conditions in a glasshouse (at 22/16° C., day/night; 16 hours light; 65% humidity) and watered twice daily. After 20 days the test was evaluated (100=total damage to plant; 0=no damage to plant).
# (§6) Species as for Post-Emergence Test.
# [27] = system: AMARE Amaranthus retroflexus; assay: Pre-emergence crop and weed test (Example 16); conditions: after 20 days
# Protocol: as §3, with “1 day” for “14 days”
# as §5, §6
# [28] = system: CHEAL Chenopodium album; assay: Pre-emergence crop and weed test (Example 16); conditions: after 20 days
# Protocol: as §3, with “1 day” for “14 days”
# as §5, §6
# [29] = system: EPHHL Euphorbia heterophylla; assay: Pre-emergence crop and weed test (Example 16); conditions: after 20 days
# Protocol: as §3, with “1 day” for “14 days”
# as §5, §6
# [30] = system: GLXMA Soybean; assay: Pre-emergence crop and weed test (Example 16); conditions: after 20 days
# Protocol: as §3, with “1 day” for “14 days”
# as §5, §6
# [31] = system: IPOHE Ipomoea hederacea; assay: Pre-emergence crop and weed test (Example 16); conditions: after 20 days
# Protocol: as §3, with “1 day” for “14 days”
# as §5, §6
# [32] = system: KCHSC Kochia scoparia; assay: Pre-emergence crop and weed test (Example 16); conditions: after 20 days
# Protocol: as §3, with “1 day” for “14 days”
# as §5, §6
# [33] = system: POLCO Polygonum convolvulus; assay: Pre-emergence crop and weed test (Example 16); conditions: after 20 days
# Protocol: as §3, with “1 day” for “14 days”
# as §5, §6
# [34] = system: SIDSP Sida spinosa; assay: Pre-emergence crop and weed test (Example 16); conditions: after 20 days
# Protocol: as §3, with “1 day” for “14 days”
# as §5, §6
# [35] = system: SINAR Sinapis arvensis; assay: Pre-emergence crop and weed test (Example 16); conditions: after 20 days
# Protocol: as §3, with “1 day” for “14 days”
# as §5, §6
# [36] = system: XANST Xanthium strumarium; assay: Pre-emergence crop and weed test (Example 16); conditions: after 20 days
# Protocol: as §3, with “1 day” for “14 days”
# as §5, §6
# [37] = system: GALAP Galium aparine; assay: Pre-emergence crop and weed test (Example 16); conditions: 15 g/ha, after 20 days
# Protocol: as §3, with “1 day” for “14 days”
# as §5, §6
compound,measurement,setting,value
"C=Cc1c(NCc2ccco2)nc(-c2ccc(Cl)cc2)nc1C(=O)OC [Compound 7, 2-(4-Chlorophenyl)-5-ethenyl-4-(furan-2-ylmethylamino)-6-methoxycarbonyl-pyrimi-dine]",pest or weed control at 1000 g/ha,[1],50%
same,pest or weed control at 1000 g/ha,[2],100%
same,pest or weed control at 1000 g/ha,[3],20%
same,pest or weed control at 1000 g/ha,[4],40%
same,pest or weed control at 1000 g/ha,[5],10%
same,pest or weed control at 1000 g/ha,[6],20%
same,pest or weed control at 1000 g/ha,[7],30%
same,pest or weed control at 1000 g/ha,[8],100%
same,pest or weed control at 1000 g/ha,[9],40%
same,pest or weed control at 1000 g/ha,[10],80%
same,pest or weed control at 1000 g/ha,[11],0%
same,pest or weed control at 1000 g/ha,[12],90%
same,pest or weed control at 30 g/ha,[13]; 30 g/ha,70%
same,pest or weed control at 30 g/ha,[14]; 30 g/ha,50%
same,pest or weed control at 30 g/ha,[15]; 30 g/ha,20%
same,pest or weed control at 30 g/ha,[16]; 30 g/ha,0%
same,pest or weed control at 30 g/ha,[17],60%
same,plant injury at 30 g/ha,[18]; 30 g/ha,0%
same,pest or weed control at 30 g/ha,[19]; 30 g/ha,70%
same,pest or weed control at 30 g/ha,[20]; 30 g/ha,40%
same,pest or weed control at 30 g/ha,[21]; 30 g/ha,40%
same,pest or weed control at 30 g/ha,[22]; 30 g/ha,0%
same,pest or weed control at 30 g/ha,[23]; 30 g/ha,60%
same,pest or weed control at 30 g/ha,[24]; 30 g/ha,80%
same,pest or weed control at 30 g/ha,[25]; 30 g/ha,50%
"C=Cc1c(N)nc(-c2ccc(Cl)c(OC)c2F)nc1C(=O)O [Compound 11, 4-amino-2-(4-chloro-2-fluoro-3-methoxyphenyl) -5-ethenylpyrimidine-6-carboxylic acid]",pest or weed control at 8 g/ha,[13],90%
same,pest or weed control at 8 g/ha,[14],60%
same,pest or weed control at 8 g/ha,[15],80%
same,pest or weed control at 8 g/ha,[16],90%
same,plant injury at 8 g/ha,[18],0%
same,pest or weed control at 8 g/ha,[20]; 8 g/ha,10%
same,pest or weed control at 8 g/ha,[21],70%
same,pest or weed control at 8 g/ha,[22],80%
same,pest or weed control at 8 g/ha,[23],0%
same,pest or weed control at 8 g/ha,[24],80%
same,pest or weed control at 8 g/ha,[25],90%
same,Percentage damage ABUTH,[26]; 250 g/ha,100%
same,Percentage damage AMARE,[27]; 250 g/ha,100%
same,Percentage damage CHEAL,[28]; 250 g/ha,100%
same,Percentage damage EPHHL,[29]; 250 g/ha,100%
same,Percentage damage GLXMA,[30]; 250 g/ha,0%
same,Percentage damage IPOHE,[31]; 250 g/ha,100%
same,Percentage damage KCHSC,[32]; 250 g/ha,100%
same,Percentage damage POLCO,[33]; 250 g/ha,20%
same,Percentage damage SIDSP,[34]; 250 g/ha,100%
same,Percentage damage SINAR,[35]; 250 g/ha,70%
same,Percentage damage XANST,[36]; 250 g/ha,70%
"COC(=O)c1nc(-c2ccc(Cl)c(OC)c2F)nc(N)c1Cl [Ref. Ex. B, 4-Amino-5-chloro-2-(4-chloro-2-fluoro-3-methoxyphenyl)-6-methoxycarbonyl-pyrimidine, reference compound]",pest or weed control at 8 g/ha,[13],90%
same,pest or weed control at 8 g/ha,[14],100%
same,pest or weed control at 8 g/ha,[15],80%
same,pest or weed control at 8 g/ha,[16],100%
same,plant injury at 8 g/ha,[18],90%
same,pest or weed control at 8 g/ha,[19]; 8 g/ha,80%
same,pest or weed control at 8 g/ha,[21],80%
same,pest or weed control at 8 g/ha,[22],70%
same,pest or weed control at 8 g/ha,[23],80%
same,pest or weed control at 8 g/ha,[24],80%
same,pest or weed control at 8 g/ha,[25],100%
same,Percentage damage ABUTH,[26]; 15 g/ha,30%
same,Percentage damage AMARE,[27]; 15 g/ha,70%
same,Percentage damage CHEAL,[28]; 15 g/ha,30%
same,Percentage damage EPHHL,[29]; 15 g/ha,80%
same,Percentage damage GALAP,[37],70%
same,Percentage damage GLXMA,[30]; 15 g/ha,90%
same,Percentage damage IPOHE,[31]; 15 g/ha,0%
same,Percentage damage KCHSC,[32]; 15 g/ha,0%
same,Percentage damage POLCO,[33]; 15 g/ha,0%
same,Percentage damage SIDSP,[34]; 15 g/ha,40%
same,Percentage damage SINAR,[35]; 15 g/ha,80%
same,Percentage damage XANST,[36]; 15 g/ha,0%
